US8642622B2, “Piperidinyl compound as a modulator of chemokine receptor activity” (Bristol-Myers Squibb Company, priority 2010, dated 2014)

Experiment: Human liver microsomal metabolism, Assay Conditions B
Type: in vitro ADME
Protocol: Test compound is received as 20 mM in DMSO. Compound is diluted to create a 300 μM acetonitrile (ACN) solution containing 1.5% DMSO, which is then used as a 100× stock for incubation with microsomes. Each compound is tested in duplicate separately in each of three species in the Metabolic Stability-Human, Rat, Mouse assay suite or individual species in the Metabolic Stability-Dog or Metabolic Stability-Monkey suites. Compound, NADPH and liver microsome solutions are combined for incubation in three steps: • 1. 450 μL of liver microsome suspension, protein concentration of 1 mg/mL in 100 mM NaPi, pH 7.4, 6.6 mM MgCl2 buffer, are pre-warmed at 37° C. • 2. […] of 300 μM compound (98.5% CAN, 1.5% DMSO) is added to the same tube. • 3. The reaction is initiated by the addition of 50 μL of pre-warmed 5 mM NADPH solution in 100 mM NaPi, pH 7.4.
Reaction components are mixed well and 150 μL removed to quench/stop solution immediately for the zero-minute time point. Reactions are incubated at 37° C. for 10 minutes and then an additional 150 μL removed from incubation. Aliquots removed are combined with 300 μL ACN which contains 100 μM DMN as a UV standard for detection.
Quenched mixtures are centrifuged at 1500 rpm (˜500×g) in an Allegra X-12 centrifuge, SX4750 rotor (Beckman Coulter Inc., Fullerton, Calif.) for fifteen minutes to pellet denatured microsomes. A volume of 110 μl of supernatant extract, containing the mixture of parent compound and its metabolites, is then transferred to a separate 96-well plate for UV-LC/MS-MS analysis to determine the percent of parent compound that is remaining in the mixture.

CC(C)[C@@H](NC(=O)[C@@H]1CCC(F)(F)C1)C(=O)N1CC[C@](O)(c2ccc(Cl)cc2)[C@@](C)(O)C1 [Compound I, (R)—N—((R)-1-((3S,4S)-4-(4-chlorophenyl)-3,4-dihydroxy-3-methylpiperidin-1-yl)-3-methyl-1-oxobutan-2-yl)-3,3-difluorocyclopentanecarboxamide]
Human Liver Microsomal Metabolism % remaining (Assay Conditions B) (3 μM compound, 10 minutes, 37° C.): 96% (B)
% of compound remaining in the human liver microsome metabolism assay (assay conditions not given): 100%
